Assay results reported in US20140235500A1, “HIGH THROUGHPUT INSTRUMENTATION TO SCREEN CELLS AND PARTICLES BASED ON THEIR MECHANICAL PROPERTIES” (The Regents of the University of California, priority 2011, published 2014).

What was measured:
HL60 cells = assay: High throughput mechanical screening (HTMS): cell passage through porous membrane under applied pressure; format: cell-based, human; conditions: for cell deformability: FIG. 27
Excerpt: An initial prototype device (see, e.g., FIGS. 9-16) was machined out of polymethylmethacrylate (McMaster Carr) in the format of a 96-well plate containing: a porous membrane sandwiched between a bottom, multiwell collection plate, and a top loading plate. A pressure chamber seals the device and interfaces with a compressed air tank (see, e.g., FIG. 17).
In the initial prototype device, we use track-etched, polycarbonate membranes with 5 μm pore size (Millipore). To minimize adhesion, surface treatment with 10 mg/mL bovine serum albumin was performed prior to the experiment. To load the device, cells were deposited on top of the porous membrane in each individual well. The optimal loading density of cells was established iteratively with detection: a loading density of ˜10^6 cells/mL was optimal given the estimated lower detection limit of 10^2 cells/mL using a flow cytometer.
Once the device was loaded, the pressure chamber lid was placed on top to create a pressure-tight seal, and tubing was connected to a tank of compressed air with 5% CO2 that was outfitted with a pressure gauge (0-30 psi, 0.2 psi resolution, Airgas). An electro-pneumatic regulator (0-20 psi output, Omega) enabled precise control of the magnitude and duration of applied pressure for sub-second periods of time via control through LabVIEW. Pressures between 5-10 psi were estimated to generate ˜kPa-scale stresses required to deform cells with elastic moduli in the kPa range.
After applying pressure to induce deformation of cells through the pores, the number of passaged cells was counted. We used a flow cytometer to count cells in the individual wells of a 96-well plate using scattered light (forward versus side scatter) as a signal (LSRII flow cytometer, BD Biosciences). An entire 96-well plate was counted within 15 minutes.
(§1) As shown in FIG. 27 the effect of various anti-cancer drugs (e.g., cytochalisin D, paclitaxel, daunorubicin, colchicine) can readily be detected using the HTMS systems described herein. […] Without being bound by a particular theory, it is believed that that the changes in mechanical properties are produced by the action of the drugs on cytoskeletal elements (e.g., actin filaments). Similarly, as shown in FIG. 28 the HTMS measurements made herein can be used to detect dose-response effects of various agents (e.g., anti-cancer drugs) on cells. In this experiment, HL60 cells were treated with 10.0 μM colchicine. Without being bound by a particular theory it is believed that colchicine perturbs microtubules at low concentrations and stabilizes F-actin at high concentrations.

OVCAR5 cells = assay: HTMS measurement of drug treatment on ovarian cancer cells; format: cell-based; conditions: OVCAR5-CIS+ cells treated for <1 day; 0.4 psi for 35 s; FIG. 32
Excerpt: FIG. 32 illustrates the use of HTMS measurements to detect the effects of drug treatment on cancer cells. Data: 0.4 psi for 35 s.
In addition, the HTMS systems described herein can be used to monitor the progression of drug treatments. Ovarian cancer cells: SKOV3 and OVCAR5 are cisplatin sensitive, while SKOV3-CISR and OVCAR5-CISR are cisplatin resistant.

[1] = tested on: adherent murine mammary carcinoma cells (67NR); assay: HTMS measurement on adherent carcinoma cells; format: cell-based; conditions: 67NR cells; FIG. 29
Excerpt: FIG. 29 illustrates the effect of various drugs on adherent murine mammary carcinoma cells (67NR).
as §1

[2] = tested on: human promyelocytic leukemia (HL60) cells; assay: Flow of cells through constricted microfluidic channels (deformation time); format: cell-based; conditions: HL60 cells treated with drug to perturb actin network; narrow constrictions
Excerpt: To dissect the contributions of nuclear physical properties to whole cell deformability, human promyelocytic leukemia (HL60) cells provide a convenient model system. These cells can be readily differentiated into neutrophil-type cells in vitro. During this process of granulopoiesis, the cell nucleus undergoes major changes in morphology as it transitions from an ovoid to an irregular, multi-lobed structure.
In addition to these induced changes in nuclear morphology, cytoskeletal protein expression is also altered. Levels of actin increase during differentiation, and cortical actin is implicated in the resistance of these cells to out-of-plane deformations. To determine the contributions of actin to cellular deformation, cells were treated with a drug (cytochalasin B) to perturb their actin network. […] One determinant of nucleus shape stability is the intermediate filament type protein, lamin A. This protein is a major constituent of the meshwork underlying the nuclear envelope, and its expression levels are directly linked to nuclear mechanical properties.

CC1=C(/C=C/C(C)=C/C=C/C(C)=C/C(=O)O)C(C)(C)CCC1 [ATRA]
pressure dependence of cell passage versus HL60 cells (HL60 cells; neutrophil-type (ATRA-treated) cells, FIG. 25): different pressure dependence

N.N.[Cl][Pt][Cl] [cisplatin]
difference in HTMS measurement compared with OVCAR5 cells (OVCAR5 cells): no apparent difference

COc1cc2c(c(OC)c1OC)-c1ccc(OC)c(=O)cc1[C@@H](NC(C)=O)CC2 [colchicine]
cell deformability (HL60 cells; HL60 cells, 10.0 μM): decrease the deformability | cell stiffness (dose response) (HL60 cells; HL60 cells, low drug concentration, FIG. 28): increased cell stiffness | dose response effects on cell mechanical properties [1]: Dose response effects of colchicine are also observed

C=C1[C@@H](C)[C@H]2[C@H](Cc3ccccc3)NC(=O)[C@]23OC(=O)/C=C/[C@H](O)CCC[C@@H](C)C/C=C/[C@H]3[C@@H]1O [cytochalasin B]
difference in cellular deformation between treated and non-treated controls [2]: no detectable difference

C=C1[C@@H](C)[C@H]2[C@H](Cc3ccccc3)NC(=O)[C@]23[C@H](OC(C)=O)/C=C/[C@@](C)(O)C(=O)[C@@H](C)C/C=C/[C@H]3[C@@H]1O [cytochalasin D]
cell deformability (HL60 cells; HL60 cells, 2.0 μM): increase cell deformability

COc1cccc2c1C(=O)c1c(O)c3c(c(O)c1C2=O)C[C@@](O)(C(C)=O)C[C@@H]3O[C@H]1C[C@H](N)[C@H](O)[C@H](C)O1 [dauorubicin]
cell deformability (HL60 cells; HL60 cells, 1.0 μM): decrease the deformability

CC(=O)O[C@H]1C(=O)[C@@]2(C)[C@H]([C@H](OC(=O)c3ccccc3)[C@]3(O)C[C@H](OC(=O)[C@H](O)[C@@H](NC(=O)c4ccccc4)c4ccccc4)C(C)=C1C3(C)C)[C@]1(OC(C)=O)CO[C@@H]1C[C@@H]2O [paclitaxel]
cell deformability (HL60 cells; HL60 cells, 1.5 μM): increase cell deformability
